According to publication PMC8148378 (Chemical Science, 2019):
In brackets after ≈: the same amount, converted by molar mass.

How the values were obtained:
[1] = system: E. coli WT DSM-1116; test: MIC determination; type: cell-based; details: Escherichia coli, DSM1116, read-out: MIC E. coli WT, DSM-1116
[2] = type: physicochemical
[3] = system: P. aeruginosa ΔmexAB (PA14ΔmexAB); test: MIC determination; type: cell-based; details: Pseudomonas aeruginosa, read-out: MIC P. aeruginosa ΔmexAB
[4] = system: S. aureus ATCC29213; test: MIC determination; type: cell-based; details: Staphylococcus aureus, ATCC29213, read-out: MIC S. aureus, ATCC29213
[5] = system: P. aeruginosa WT PA14; test: MIC determination; type: cell-based, Pseudomonas aeruginosa; details: for MIC: Pseudomonas aeruginosa, PA14, read-out: MIC P. aeruginosa WT, PA14
[6] = molecular target: T1, E. coli gyrase (Escherichia coli, UniProt P0AES4); test: DNA gyrase supercoiling assay, method a; type: biochemical
T1 sequence (P0AES4 whole entry): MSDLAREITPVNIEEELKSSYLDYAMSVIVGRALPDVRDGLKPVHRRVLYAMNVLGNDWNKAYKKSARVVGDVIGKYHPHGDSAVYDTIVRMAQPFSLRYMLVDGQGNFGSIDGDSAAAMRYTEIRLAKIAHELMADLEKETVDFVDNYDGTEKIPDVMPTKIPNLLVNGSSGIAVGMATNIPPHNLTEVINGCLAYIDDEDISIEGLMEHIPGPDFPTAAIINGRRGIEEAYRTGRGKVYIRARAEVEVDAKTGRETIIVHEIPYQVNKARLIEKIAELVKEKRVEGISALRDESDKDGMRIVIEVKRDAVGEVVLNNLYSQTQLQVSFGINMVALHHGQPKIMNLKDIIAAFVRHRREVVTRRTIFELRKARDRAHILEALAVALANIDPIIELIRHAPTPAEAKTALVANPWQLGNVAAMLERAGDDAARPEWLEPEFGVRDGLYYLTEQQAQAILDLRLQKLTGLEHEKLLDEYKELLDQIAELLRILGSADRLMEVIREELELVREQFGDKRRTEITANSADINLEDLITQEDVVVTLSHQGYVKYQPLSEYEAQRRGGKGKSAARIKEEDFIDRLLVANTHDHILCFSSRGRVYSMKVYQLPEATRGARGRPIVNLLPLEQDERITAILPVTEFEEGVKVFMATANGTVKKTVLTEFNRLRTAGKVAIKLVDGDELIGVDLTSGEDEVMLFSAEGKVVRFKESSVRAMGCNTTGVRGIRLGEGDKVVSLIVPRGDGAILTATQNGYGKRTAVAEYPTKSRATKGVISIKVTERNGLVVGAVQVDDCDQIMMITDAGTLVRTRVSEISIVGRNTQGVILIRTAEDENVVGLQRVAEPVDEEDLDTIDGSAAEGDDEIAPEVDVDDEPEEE

[7] = system: E. coli ΔtolC; test: MIC determination; type: cell-based; details: Escherichia coli, read-out: MIC E. coli ΔtolC
[8] = molecular target: T1, E. coli gyrase; test: DNA gyrase supercoiling assay, method b; type: biochemical; details: for fold decrease of gyrase inhibition: compared to 22
[9] = system: E. coli WT-3; test: MIC determination, larger panel; type: cell-based; details: Escherichia coli, WT3, read-out: MIC E. coli WT-3
[10] = system: K. pneumoniae DSM-30104; test: MIC determination, larger panel; type: cell-based; details: Klebsiella pneumoniae, DSM30104, read-out: MIC K. pneumoniae
[11] = system: E. cloacae DSM-30054; test: MIC determination, larger panel; type: cell-based; details: Enterobacter cloacae, DSM30054, read-out: MIC E. cloacae
[12] = system: P. mirabilis DSM-4479; test: MIC determination, larger panel; type: cell-based; details: Proteus mirabilis, DSM4479, read-out: MIC P. mirabilis
[13] = system: S. marcescens DSM-30121; test: MIC determination, larger panel; type: cell-based; details: Serratia marcescens, DSM30121, read-out: MIC S. marcescens
[14] = system: E. aerogenes DSM-30053; test: MIC determination, larger panel; type: cell-based, Enterobacter aerogenes; details: Klebsiella aerogenes, DSM30053, read-out: MIC E. aerogenes
[15] = system: P. aeruginosa ESBL 2 DSM-46316; test: MIC determination, larger panel; type: cell-based; details: Pseudomonas aeruginosa, DSM46316, read-out: MIC P. aeruginosa ESBL 2
[16] = system: P. aeruginosa ESBL 1 DSM-24600; test: MIC determination, larger panel; type: cell-based; details: Pseudomonas aeruginosa, DSM24600, read-out: MIC P. aeruginosa ESBL 1
[17] = system: A. baumannii DSM-30008; test: MIC determination, larger panel; type: cell-based; details: Acinetobacter baumannii, DSM30008, read-out: MIC A. baumannii, DSM-30008
[18] = system: E. faecalis ATCC-29212; test: MIC determination, larger panel; type: cell-based; details: Enterococcus faecalis, ATCC29212, read-out: MIC E. faecalis
[19] = system: P. dispersa; test: MIC against the AlbD producer; type: cell-based; details: Pantoea dispersa, read-out: MIC P. dispersa

SMILES	MIC [1] [µg/mL]	MIC [3] [µg/mL]	MIC [4] [µg/mL]	MIC [5] [µg/mL]	MIC [7] [µg/mL]	MIC [9] [µg/mL]	further results
CC(C)Oc1c(NC(=O)c2ccc(NC(=O)[C@H](CC(N)=O)NC(=O)c3ccc(NC(=O)c4ccc([N+](=O)[O-])cc4)cc3)cc2)ccc(C(=O)Nc2ccc(C(=O)O)cc2)c1O [Compound 4]	1 (≈ 1.2 µM)	1 (≈ 1.2 µM)	1 (≈ 1.2 µM)	> 64	0.125 (≈ 0.15 µM)		pKa [2]: < 8; MIC P. aeruginosa WT ([5]; PA14): >64 µg/mL; IC50 [6]: 110 nM
CC(C)Oc1c(NC(=O)c2ccc(NC(=O)[C@H](CC(N)=O)NC(=O)c3ccc(NC(=O)c4ccccc4)cc3)cc2)ccc(C(=O)Nc2ccc(C(=O)O)cc2)c1O [Compound 15]	> 64						
CC(C)Oc1c(NC(=O)c2ccc(NC(=O)[C@H](CC(N)=O)NC(=O)c3ccc(NC(=O)c4ccc(C(F)(F)F)cc4)cc3)cc2)ccc(C(=O)Nc2ccc(C(=O)O)cc2)c1O [Compound 23]			16 to 32 (≈ 18.7 to 37.4 µM)				
CC(C)Oc1c(NC(=O)c2ccc(NC(=O)[C@H](CC(N)=O)NC(=O)c3ccc(NC(=O)c4ccc(NC(=O)c5ccc([N+](=O)[O-])cc5)cc4)cc3)cc2)ccc(C(=O)Nc2ccc(C(=O)O)cc2)c1O [Compound 24]							fold reduced inhibitory activity in the gyrase assay ([8]; compared to 4): 20 fold
CC(C)Oc1c(NC(=O)c2ccc(NC(=O)[C@H](CC(N)=O)NC(=O)c3ccc(NC(=O)c4ccc(C#N)cn4)cc3)cc2)ccc(C(=O)Nc2ccc(C(=O)O)cc2)c1O [Compound 31]						2 (≈ 2.46 µM)	
CC(C)Oc1c(NC(=O)c2ccc(NC(=O)[C@H](CC(N)=O)NC(=O)c3ccc(NC(=O)c4ccc(C#N)s4)cc3)cc2)ccc(C(=O)Nc2ccc(C(=O)O)cc2)c1O [Compound 32]						1 (≈ 1.22 µM)	MIC [10]: > 64 µg/mL; MIC [11]: > 64 µg/mL; MIC [12]: > 64 µg/mL; MIC [13]: > 64 µg/mL
C/C(=C\c1ccc(O)cc1)C(=O)Nc1ccc(C(=O)N[C@@H](CC(N)=O)C(=O)Nc2ccc(C(=O)Nc3ccc(C(=O)Nc4ccc(C(=O)O)cc4)c(O)c3OC(C)C)cc2)cc1 [Compound 45]						0.125 (≈ 0.148 µM)	MIC [14]: 1 µg/mL (≈ 1.19 µM); MIC [10]: > 64 µg/mL; MIC [11]: > 64 µg/mL; MIC [12]: 2 µg/mL (≈ 2.37 µM); MIC [15]: 2 µg/mL (≈ 2.37 µM); MIC [13]: 64 µg/mL (≈ 75.9 µM); MIC [16]: > 64 µg/mL
C/C(=C\c1ccc(C#N)cc1)C(=O)Nc1ccc(C(=O)N[C@@H](CC(N)=O)C(=O)Nc2ccc(C(=O)Nc3ccc(C(=O)Nc4ccc(C(=O)O)cc4)c(O)c3OC(C)C)cc2)cc1 [Compound 46]						0.125 (≈ 0.147 µM)	MIC [17]: 0.06 µg/mL (≈ 0.0704 µM)
CC(C)Oc1cc(C(=O)Nc2ccc(C(=O)O)cc2)ccc1NC(=O)c1ccc(NC(=O)[C@H](CC(N)=O)NC(=O)c2ccc(NC(=O)c3ccc([N+](=O)[O-])cc3)cc2)cc1 [Compound 52]	> 64	1 (≈ 1.23 µM)	> 64	> 64	0.06 (≈ 0.0735 µM)		
CC(C)COc1c(NC(=O)c2ccc(NC(=O)[C@H](CC(N)=O)NC(=O)c3ccc(NC(=O)c4ccc([N+](=O)[O-])cc4)cc3)cc2)ccc(C(=O)Nc2ccc(C(=O)O)cc2)c1O [Compound 53]	> 64	> 64	1 (≈ 1.18 µM)	> 64	2 (≈ 2.36 µM)		
Cn1cc(NC(=O)C(CC(N)=O)NC(=O)c2ccc(NC(=O)c3ccc(C#N)cc3)cc2)cc1-c1nc2ccc(C(=O)Nc3ccc(C(=O)O)cc3)c(O)c2[nH]1 (centres unmarked) [Compound 56]							fold decrease of gyrase inhibition [8]: approximately 100 fold; IC50 [6]: 10900 nM
CC(C)Oc1c(-n2cc(-c3ccc(NC(=O)C(CC(N)=O)NC(=O)c4ccc(NC(=O)c5ccc(C#N)cc5)cc4)cc3)nn2)ccc(C(=O)Nc2ccc(C(=O)O)cc2)c1O (centres unmarked) [Compound 61]						16 (≈ 19.1 µM)	MIC [14]: 1 µg/mL (≈ 1.2 µM); MIC [17]: 8 µg/mL (≈ 9.57 µM); MIC [10]: > 64 µg/mL; MIC [11]: > 64 µg/mL; MIC [18]: 16 µg/mL (≈ 19.1 µM); MIC [12]: 16 µg/mL (≈ 19.1 µM); MIC [15]: 16 µg/mL (≈ 19.1 µM); fold decrease of gyrase inhibition [8]: ca. 20 fold; MIC [13]: > 64 µg/mL; MIC [16]: 16 µg/mL (≈ 19.1 µM); MIC [19]: 1 µg/mL (≈ 1.2 µM)
CC(C)Oc1c(NC(=O)c2ccc(NC(=O)[C@H](CC(N)=O)NC(=O)c3ccc(NC(=O)c4ccc(C#N)cc4)cc3)cc2)ccc(C(=O)O)c1O [Compound 67]							fold decrease of gyrase inhibition [8]: more than 100 fold
CC(C)Oc1c(NC(=O)c2ccc(NC(=O)c3ccc(NC(=O)[C@H](CC(N)=O)NC(=O)c4ccc(NC(=O)c5ccc([N+](=O)[O-])cc5)cc4)cc3)c(OC(C)C)c2O)ccc(C(=O)O)c1O [Compound 78]	0.5 (≈ 0.552 µM)	1 (≈ 1.1 µM)	0.05 (≈ 0.0552 µM)	> 64	0.125 (≈ 0.138 µM)		IC50 [8]: 200 nM
CC(C)Oc1c(NC(=O)c2ccc(NC(=O)c3ccc(NC(=O)[C@H](CC(N)=O)NC(=O)c4ccc(NC(=O)c5ccc(C#N)cc5)cc4)cc3)c(OC(C)C)c2O)ccc(C(=O)O)c1O [Compound 79]	0.25 (≈ 0.282 µM)	1 (≈ 1.13 µM)	≤ 0.03	2 (≈ 2.26 µM)	≤ 0.03		IC50 [8]: 600 nM
CC(C)Oc1c(NC(=O)c2ccc(NC(=O)c3ccc(NC(=O)[C@H](CC(N)=O)NC(=O)c4ccc(NC(=O)c5ccc(C#N)cn5)cc4)cc3)c(OC(C)C)c2O)ccc(C(=O)O)c1O [Compound 80]	0.06 (≈ 0.0677 µM)	0.5 (≈ 0.564 µM)	≤ 0.03	> 64	≤ 0.03	0.5 (≈ 0.564 µM)	MIC [14]: 1 µg/mL (≈ 1.13 µM); MIC [17]: 0.25 µg/mL (≈ 0.282 µM); MIC [11]: > 64 µg/mL; MIC [18]: ≤ 0.03 µg/mL; MIC [15]: > 64 µg/mL; MIC [13]: > 64 µg/mL; MIC [16]: > 64 µg/mL
CC(C)Oc1c(NC(=O)c2ccc(NC(=O)c3ccc(NC(=O)[C@H](CC(N)=O)NC(=O)c4ccc(NC(=O)c5ccc(C#N)s5)cc4)cc3)c(OC(C)C)c2O)ccc(C(=O)O)c1O [Compound 81]	0.125 (≈ 0.14 µM)	2 (≈ 2.24 µM)	0.06 (≈ 0.0673 µM)	> 64	0.06 (≈ 0.0673 µM)	0.5 (≈ 0.561 µM)	MIC [14]: 1 µg/mL (≈ 1.12 µM); MIC [17]: 1 µg/mL (≈ 1.12 µM); MIC [10]: 1 µg/mL (≈ 1.12 µM); MIC [11]: > 64 µg/mL; MIC [18]: ≤ 0.03 µg/mL; MIC [12]: > 64 µg/mL; MIC [15]: > 64 µg/mL; MIC [13]: > 64 µg/mL; MIC [16]: > 64 µg/mL
C/C(=C\c1ccc(C#N)cc1)C(=O)Nc1ccc(C(=O)N[C@@H](CC(N)=O)C(=O)Nc2ccc(C(=O)Nc3ccc(C(=O)Nc4ccc(C(=O)O)c(O)c4OC(C)C)c(O)c3OC(C)C)cc2)cc1 [Compound 82]	0.125 (≈ 0.135 µM)	0.25 (≈ 0.27 µM)	0.06 (≈ 0.0648 µM)	1 (≈ 1.08 µM)	≤ 0.03		IC50 [8]: 200 nM
COC(=O)c1ccc(NC(=O)c2ccc(NC(=O)c3ccc(NC(=O)[C@H](CC(N)=O)NC(=O)c4ccc(NC(=O)c5ccc([N+](=O)[O-])cc5)cc4)cc3)c(OC(C)C)c2)cc1 [Compound 129]	> 64	> 64	> 64	> 64	> 64		
O=C(O)c1cn(C2CC2)c2cc(N3CCNCC3)c(F)cc2c1=O [ciprofloxacin, reference compound]							MIC [17]: 0.32 µg/mL (≈ 0.966 µM); MIC [18]: 1 µg/mL (≈ 3.02 µM); MIC [12]: 0.06 µg/mL (≈ 0.181 µM); MIC [16]: 8 µg/mL (≈ 24.1 µM)
